Source: patent US20100267561A1, “HERBICIDAL PYRIDAZINONE DERIVATIVES” (priority 2007, published 2010)

Key:
Type in all cases: in vivo
[1] = tested on: ducksalad (Heteranthera limosa); assay: Test B flooded paddy test plant response
In short: (§1)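 Compounds were added directly to paddy water over 2-leaf-stage plants in pots flooded 3 cm above soil, water depth maintained. Visual injury scored against controls after 13 to 15 days in greenhouse, 0 (none) to 100 (complete control); dash indicates no result.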

rice (Oryza sativa) = assay: Test B flooded paddy test plant response
In short: as §1

[2] = tested on: barnyardgrass (Echinochloa crus-galli); assay: Test B flooded paddy test plant response
In short: as §1

[3] = tested on: umbrella sedge (Cyperus difformis); assay: Test B flooded paddy test plant response
In short: as §1

[4] = tested on: Russian thistle (Salsola iberica); assay: Test B pre-/postemergence plant response; conditions: Preemergence
In short: (§2)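 Visual scoring from 0 (no effect) to 100 (complete control) against untreated controls was done 13 to 15 days after greenhouse treatment. Chemicals were formulated in a surfactant-containing non-phytotoxic solvent and applied to soil preemergence or to 1- to 4-leaf (2-18 cm) plants postemergence.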

[5] = tested on: downy bromegrass (Bromus tectorum); assay: Test B pre-/postemergence plant response; conditions: for Bromegrass, Downy plant response rating: 8 g ai/ha
In short: as §2

[6] = tested on: large crabgrass (Digitaria sanguinalis); assay: Test B pre-/postemergence plant response; conditions: for Crabgrass, Large plant response rating: 8 g ai/ha
In short: as §2

[7] = tested on: green foxtail (Setaria viridis); assay: Test B pre-/postemergence plant response; conditions: for Foxtail, Green plant response rating: 8 g ai/ha
In short: as §2

[8] = tested on: pigweed (Amaranthus retroflexus); assay: Test B pre-/postemergence plant response; conditions: for Pigweed plant response rating: 8 g ai/ha
In short: as §2

corn (Zea mays) = assay: Test B pre-/postemergence plant response; conditions: for Corn plant response rating: 8 g ai/ha
In short: as §2

[9] = tested on: giant foxtail (Setaria faberii); assay: Test B pre-/postemergence plant response; conditions: for Foxtail, Giant plant response rating: 8 g ai/ha
In short: as §2

wild oat (Avena fatua) = assay: Test B pre-/postemergence plant response; conditions: for Oat, Wild plant response rating: 8 g ai/ha
In short: as §2

[10] = tested on: eastern black (E.B.) nightshade (Solanum ptycanthum); assay: Test B pre-/postemergence plant response; conditions: Preemergence
In short: as §2

[11] = tested on: woolly cupgrass (Eriochloa villosa); assay: Test B pre-/postemergence plant response; conditions: for Cupgrass, Woolly plant response rating: 8 g ai/ha
In short: as §2

[12] = Flood (flooded paddy test), 62 g ai/ha, scale 0 to 100, 0 no effect, 100 complete control
[13] = Flood (flooded paddy test), 125 g ai/ha, scale 0 to 100, 0 no effect, 100 complete control
[14] = Flood (flooded paddy test), 250 g ai/ha, scale 0 to 100, 0 no effect, 100 complete control
[15] = Flood, 31 g ai/ha, scale 0 to 100
[16] = 16 g ai/ha, scale 0 to 100 (0 no effect, 100 complete control)
[17] = Postemergence, 16 g ai/ha, scale 0 to 100
[18] = Postemergence, 31 g ai/ha, scale 0 to 100, 0 no effect, 100 complete control
[19] = Postemergence, 62 g ai/ha, scale 0 to 100
[20] = Preemergence, 16 g ai/ha, scale 0 to 100 (0 no effect, 100 complete control)
[21] = Preemergence, 31 g ai/ha, 0 to 100 scale, 0 no effect, 100 complete control
[22] = Preemergence, 62 g ai/ha, scale 0 to 100

`CCc1cc(-c2ccc(Cl)c(Cl)c2)nn1-c1c(O)cnn(C)c1=O` [Compound 20] was tested, and the “Plant response rating, Ducksalad” value [1, 12] was 0, the “Plant response rating, Ducksalad” value [1, 13] was 0 and the “Plant response rating, Ducksalad” value [1, 14] was 0. For the same compound, the “Plant response rating, Ducksalad” value [1, 15] was 0, the “Plant response rating, Rice” value (rice (Oryza sativa); [12]) was 0 and the “Plant response rating, Rice” value (rice (Oryza sativa); [13]) was 0. For the same compound, the “Plant response rating, Rice” value (rice (Oryza sativa); [14]) was 0, the “Plant response rating, Rice” value (rice (Oryza sativa); [15]) was 0 and the “Plant response rating, Barnyardgrass” value [2, 12] was 0. The “Plant response rating, Barnyardgrass” value [2, 13] was 0, the “Plant response rating, Barnyardgrass” value [2, 14] was 0 and the “Plant response rating, Barnyardgrass” value [2, 15] was 0. For the same compound, the “Plant response rating, Sedge, Umbrella” value [3, 12] was 0, the “Plant response rating, Sedge, Umbrella” value [3, 13] was 0 and the “Plant response rating, Sedge, Umbrella” value [3, 14] was 0. For the same compound, the “Plant response rating, Sedge, Umbrella” value [3, 15] was 0, the “Plant response rating, Russian Thistle” value [4, 16] was 0 and the “Plant response rating, Russian Thistle” value ([4]; 31 g ai/ha, 0 to 100 scale, 0 no effect, 100 complete control) was 0. The “Plant response rating, Russian Thistle” value ([4]; 62 g ai/ha, scale 0 to 100) was 0, the “Bromegrass, Downy plant response rating” value ([5]; postemergence, 0-100 scale) was 0 and the “Plant response rating, Bromegrass, Downy” value [5, 17] was 0. For the same compound, the “Plant response rating, Bromegrass, Downy” value [5, 18] was 40, the “Plant response rating, Bromegrass, Downy” value [5, 19] was 50 and the “Plant response rating, Bromegrass, Downy” value [5, 20] was 0. For the same compound, the “Plant response rating, Bromegrass, Downy” value [5, 21] was 0, the “Plant response rating, Bromegrass, Downy” value [5, 22] was 0 and the “Bromegrass, Downy plant response rating” value ([5]; Preemergence, scale 0 to 100) was 0. For the same compound, the “Crabgrass, Large plant response rating” value ([6]; postemergence, 0-100 scale) was 5, the “Plant response rating, Crabgrass, Large” value [6, 17] was 70 and the “Plant response rating, Crabgrass, Large” value [6, 18] was 85. For the same compound, the “Plant response rating, Crabgrass, Large” value [6, 19] was 90, the “Plant response rating, Crabgrass, Large” value [6, 20] was 50 and the “Plant response rating, Crabgrass, Large” value [6, 21] was 50. For the same compound, the “Plant response rating, Crabgrass, Large” value [6, 22] was 60, the “Crabgrass, Large plant response rating” value ([6]; Preemergence, scale 0 to 100) was 0 and the “Foxtail, Green plant response rating” value ([7]; postemergence, 0-100 scale) was 20. The “Plant response rating, Foxtail, Green” value [7, 17] was 60, the “Plant response rating, Foxtail, Green” value [7, 18] was 85 and the “Plant response rating, Foxtail, Green” value [7, 19] was 95. The “Plant response rating, Foxtail, Green” value [7, 20] was 95, the “Plant response rating, Foxtail, Green” value [7, 21] was 100 and the “Plant response rating, Foxtail, Green” value [7, 22] was 100. For the same compound, the “Foxtail, Green plant response rating” value ([7]; Preemergence, scale 0 to 100) was 20, the “Pigweed plant response rating” value ([8]; postemergence, 0-100 scale) was 0 and the “Plant response rating, Pigweed” value [8, 17] was 0. The “Plant response rating, Pigweed” value [8, 18] was 0, the “Plant response rating, Pigweed” value [8, 19] was 0 and the “Plant response rating, Pigweed” value [8, 20] was 0. For the same compound, the “Plant response rating, Pigweed” value [8, 21] was 0, the “Plant response rating, Pigweed” value [8, 22] was 0 and the “Pigweed plant response rating” value ([8]; Preemergence, scale 0 to 100) was 0. The “Corn plant response rating” value (corn (Zea mays); postemergence, 0-100 scale) was 0, the “Plant response rating, Corn” value (corn (Zea mays); [17]) was 90 and the “Plant response rating, Corn” value (corn (Zea mays); [18]) was 95. For the same compound, the “Plant response rating, Corn” value (corn (Zea mays); [20]) was 5, the “Plant response rating, Corn” value (corn (Zea mays); [21]) was 80 and the “Plant response rating, Corn” value (corn (Zea mays); [22]) was 95. The “Corn plant response rating” value (corn (Zea mays); Preemergence, scale 0 to 100) was 0, the “Foxtail, Giant plant response rating” value ([9]; postemergence, 0-100 scale) was 80 and the “Plant response rating, Foxtail, Giant” value [9, 17] was 90. The “Plant response rating, Foxtail, Giant” value [9, 18] was 95, the “Plant response rating, Foxtail, Giant” value [9, 19] was 95 and the “Plant response rating, Foxtail, Giant” value [9, 20] was 0. For the same compound, the “Plant response rating, Foxtail, Giant” value [9, 21] was 50, the “Plant response rating, Foxtail, Giant” value [9, 22] was 100 and the “Foxtail, Giant plant response rating” value ([9]; Preemergence, scale 0 to 100) was 0. For the same compound, the “Oat, Wild plant response rating” value (wild oat (Avena fatua); postemergence, 0-100 scale) was 50, the “Plant response rating, Oat, Wild” value (wild oat (Avena fatua); [17]) was 90 and the “Plant response rating, Oat, Wild” value (wild oat (Avena fatua); [18]) was 90. For the same compound, the “Plant response rating, Oat, Wild” value (wild oat (Avena fatua); [19]) was 90, the “Plant response rating, Oat, Wild” value (wild oat (Avena fatua); [20]) was 0 and the “Plant response rating, Oat, Wild” value (wild oat (Avena fatua); [21]) was 50. The “Plant response rating, Oat, Wild” value (wild oat (Avena fatua); [22]) was 60, the “Oat, Wild plant response rating” value (wild oat (Avena fatua); Preemergence, scale 0 to 100) was 0 and the “Plant response rating, Nightshade, E. B.” value [10, 16] was 0. For the same compound, the “Plant response rating, Nightshade, E. B.” value ([10]; 62 g ai/ha, scale 0 to 100) was 0, the “Nightshade, E. B. plant response rating” value ([10]; 8 g ai/ha, scale 0 to 100) was 0 and the “Cupgrass, Woolly plant response rating” value ([11]; postemergence, 0-100 scale) was 45. The “Plant response rating, Cupgrass, Woolly” value [11, 17] was 90, the “Plant response rating, Cupgrass, Woolly” value [11, 18] was 90 and the “Plant response rating, Cupgrass, Woolly” value [11, 19] was 100. The “Plant response rating, Cupgrass, Woolly” value [11, 20] was 30, the “Plant response rating, Cupgrass, Woolly” value [11, 21] was 50 and the “Plant response rating, Cupgrass, Woolly” value [11, 22] was 98. For the same compound, the “Cupgrass, Woolly plant response rating” value ([11]; Preemergence, scale 0 to 100) was 0.
